These results are taken from patent US7585503B2, “Method for detecting multi-drug resistance” (priority 2005, dated 2009).

SMILES strings stand for the structures.

What all share (type): cell-based, human
The test system of experiment [1] is 2008/C13*5.25 resistant ovarian carcinoma cells. Kind of experiment: Cytotoxicity assay by colony forming ability, resistant cells. Particulars: 25 μM cisplatin with or without 5 mU sialidase, 1 h, about two weeks of growth. Here is the method:
To confirm the sialidase effects on F-DDP internalization and sensitizing the resistant cells to the drug, the resistant cells were tested in cytotoxicity assay to determine colony formation ability with cisplatin treatments in the presence and absence of sialidase. Resistant cells were treated with high concentration of cisplatin (25 μM, an IC-50 about 10 fold higher than that of the sensitive cells) in the absence and presence of 5 mU sialidase (see table 1 in “Experimental procedures”). The colony formation ability of MDR cells was reduced 40-50%, when sialidase concomitant with cisplatin was added to the resistant cells compare to the resistant cells treated with the same amounts of cisplatin in the absence of sialidase. The data, thus, support the sialidase-mediated drug internalization and increasing the cytotoxicity of the drug.
Colony forming ability assay was performed by seeding 100 cells/ml of sensitive or resistant isotypes per each well/ml in 12 well plates. Cells were cultured with DMEM, 10% FBS overnight. The assay was performed in 4 plates for each of the sensitive or resistant isotypes in the format shown in Table 1 and was repeated three times. 2008 isotype pair were used in the experiment. […]

Experiment [2] relates to 2008 sensitive ovarian carcinoma cells. In words: Cytotoxicity assay by colony forming ability, sensitive cells. The note with it: 25 μM cisplatin, 1 h. The method, then: Colony forming ability assay was performed by seeding 100 cells/ml of sensitive or resistant isotypes per each well/ml in 12 well plates. Cells were cultured with DMEM, 10% FBS overnight. The assay was performed in 4 plates for each of the sensitive or resistant isotypes in the format shown in Table 1 and was repeated three times. 2008 isotype pair were used in the experiment. Sensitive cells could not tolerate such high concentration of cisplatin, used in the assay, to serve the resistant cells, as the IC-50 was 10 fold higher for resistant cells compare to their parental susceptible phenotype.
Table 1: Colony forming ability was performed by seeding 100 cells/ml of sensitive or resistant isotypes per each well/ml in 12 well plates. Cells were cultured with DMEM, 10% FBS overnight. The assay was performed in 4 plates for each of the sensitive or resistant isotypes in the above format and was repeated three times for each cell pair. plate 1 (control): DMEM, 10%FBS; plate 2: DMEM containing 25 μM cisplatin; plate 3: DMEM containing 25 μM cisplatin and 5 mU neuraminidase (AUS); plate 4: DMEM containing 5 mU neuraminidase.
After one hour incubation at 37 degree C., 5% CO2, the media of different treatments were removed from the wells. Cells were then washed with DMEM and was replaced by fresh DMEM, 10% FBS. Incubation continued for about two more weeks for the colonies to appear. […]

In another experiment the test system is 2008/C13*5.25. In words: Cisplatin resistance (IC-50) of resistant sub-line versus parental line. The source says:
(§1) Three isogenic pairs of sensitive and multidrug resistant phenotypes of human ovarian carcinoma cell lines were studied. […] The morphology of the resistant cells differed from the sensitive isotypes, consistent with the cell surface molecular modifications.

Another experiment has as its system A2780/CP. The experiment is described as above.
Source text: as §1

For another experiment, the system named is IGROV-1/CP. The experiment is described as above. Particulars: IGROV-1/CP versus parental IGROV-1.
Source text: as §1

By IC50 is commonly meant the concentration needed to halve the response being measured. As to `N.N.[Cl][Pt][Cl]` [cisplatin, Dichlorodiaminocisplatin], in experiment [1], the “cell growth / colony formation relative to control (plate #1 = 100% growth)” value was “about 80 % of the control”. Besides, in experiment [2], the “colony formation (in words)” value was “almost no real colony formed”. Further, the “fold increase in IC-50 to cisplatin resistance” value came out at 10.4 fold in the experiment with 2008/C13*5.25 (2008/C13*5.25 versus parental 2008), 6.9 fold with A2780/CP and 7.6 fold in the experiment with IGROV-1/CP. Further, the IC50 in the experiment with 2008/C13*5.25 (resistant cells, the concentration used in the colony assay) was determined as 25 µM.
